Source: ChEMBL document CHEMBL1144409, “Synthesis of new quinoxaline-2-carboxylate 1,4-dioxide derivatives as anti-Mycobacterium tuberculosis agents” (J Med Chem, 2005)
In brackets after ≈: the same amount, converted by molar mass.

Tests used:
Assay type in all cases: functional
[1] = system: Mycobacterium tuberculosis; assay: In vitro minimum inhibitory concentration value against ethambutol resistant Mycobacterium tuberculosis in alamar assay
[2] = system: Mycobacterium tuberculosis; assay: Ratio of the MIC value of the Mycobacterium tuberculosis isoniazid resistant strain to H37Rv strain was determined
[3] = system: Mycobacterium tuberculosis; assay: Ratio of the MIC value of the Mycobacterium tuberculosis kanamycin resistant strain to H37Rv strain was determined
[4] = system: Mycobacterium tuberculosis; assay: Ratio of the MIC value of the Mycobacterium tuberculosis ethambutol resistant strain to H37Rv strain was determined
[5] = system: Mycobacterium tuberculosis; assay: Ratio of the MIC value of the Mycobacterium tuberculosis ethionamide resistant strain to H37Rv strain was determined
[6] = system: Mycobacterium tuberculosis; assay: In vitro minimum inhibitory concentration value against isoniazid resistant Mycobacterium tuberculosis in alamar assay
[7] = system: Mycobacterium tuberculosis; assay: In vitro minimum inhibitory concentration value against ciprofloxacin resistant Mycobacterium tuberculosis in alamar assay
[8] = system: Mycobacterium tuberculosis; assay: In vitro minimum inhibitory concentration value against rifampin resistant Mycobacterium tuberculosis in alamar assay
[9] = system: Mycobacterium tuberculosis; assay: In vitro minimum inhibitory concentration value against kanamycin resistant Mycobacterium tuberculosis in alamar assay
[10] = system: Mycobacterium tuberculosis; assay: In vitro minimum inhibitory concentration value against ethionamide resistant Mycobacterium tuberculosis in alamar assay
[11] = system: Mycobacterium tuberculosis; assay: In vitro minimum inhibitory concentration value against thiacetazone resistant Mycobacterium tuberculosis in alamar assay
[12] = system: Mycobacterium tuberculosis; assay: Ratio of the MIC value of the Mycobacterium tuberculosis thiacetazone resistant strain to H37Rv strain was determined
[13] = system: Mycobacterium tuberculosis; assay: Ratio of the MIC value of the Mycobacterium tuberculosis ciprofloxacin resistant strain to H37Rv strain was determined
[14] = system: Mycobacterium tuberculosis; assay: Ratio of the MIC value of the Mycobacterium tuberculosis rifampin resistant strain to H37Rv strain was determined

Compound	MIC [1] [µg/mL]	Ratio [2]	Ratio [3] [µg/mL]	Ratio [4] [µg/mL]	Ratio [5]	MIC [6] [µg/mL]	MIC [7] [µg/mL]	MIC [8] [µg/mL]	MIC [9] [µg/mL]	MIC [10] [µg/mL]	MIC [11] [µg/mL]	Ratio [12] [µg/mL]	Ratio [13]	Ratio [14] [µg/mL]
CCc1c(C(=O)OC)[n+]([O-])c2cc(C)c(C)cc2[n+]1[O-]	0.78 (≈ 2.82 µM)	4 µg/mL	1	2	2 µg/mL	1.56 (≈ 5.65 µM)	0.39 (≈ 1.41 µM)	0.39 (≈ 1.41 µM)	0.39 (≈ 1.41 µM)	0.78 (≈ 2.82 µM)	0.78 (≈ 2.82 µM)	2	1 µg/mL	1
COC(=O)c1c(Cc2ccccc2)[n+]([O-])c2cc(Cl)c(Cl)cc2[n+]1[O-]	≤ 3.13	>=2 ug ml-1	1	1	>=2 ug ml-1	6.25 (≈ 16.5 µM)	12.5 (≈ 33 µM)	≤ 3.13	≤ 3.13	6.25 (≈ 16.5 µM)	≤ 3.13	1	>=3.99 ug ml-1	1
